Tested on: human embryonic stem cells
Experiment: Cell death inducing effect on human embryonic stem cells (TMRM FACS, 5-day adherent culture)
Format: cell-based
Conditions: 0.45 M
Method: The human embryonic stem cells were obtained from Stem Cell Research Center, Institute for Frontier Medical Sciences, Kyoto University (ES cell center sponsored by the National Bio-Resource Project) (Suemori, H et al., Biochem. Biophys. Res. Commun., Vol. 345, 2006, pp. 926-932). The cells were cultured basically in accordance with the method described in this document. To be more specific, the human embryonic stem cells were cultured to maintain their undifferentiated state using mouse embryonic fibroblasts (MEF) that had been inactivated for growth by treatment with mitomycin C. The culture medium of F12/DMEM (1:1) (SIGMA; Product No. D6421), supplemented with 20% KO-SERUM (GIBCO), 1.6 mM L-glutamine, 0.1 mM non-essential amino acids (MEM), 0.1 mM β-mercaptoethanol (2-ME; Sigma), 100 IU/ml penicillin, 100 μg/ml streptomycin sulfate, and recombinant human basic fibroblast growth factor (bFGF; Reprotech) was used. Upon passaging, the cells were treated with 0.1% type III collagenase (Wortington) at 37° C. for 10 minutes to separate embryonic stem cell colonies. After passaging, the cells were dispersed with each other using TE (0.25% trypsin (GIBCO) and 1 mM EDTA) and in accordance with a published document (Watanabe, K. et al., Nat. Biotechnol., 2007, 25: 681-686, Epub 2007 May 27), 10 μM of a ROCK inhibitor (Y27632) was added to suppress cell death. At the same time, the mitochondria in the live cells were stained with 50 nM TMRM. Part of the stained cells were treated with an α-MEM culture medium containing 0.45 M mannitol (approximately equivalent to 720 mOsm/kg) for 2, 3 or 4 hours and three samples were prepared from these cells; the rest of the stained cells were treated with a mannitol-free α-MEM culture medium for 2 hours and a sample was prepared from these cells as a control. In the control, cells were aggregated with each other to make masses, so before FACS analysis, the treated groups and the control were given another treatment with trypsin and EDTA to disperse the cells. The cells treated with mannitol for 2, 3 or 4 hours and the control cells were analyzed by FACS for the level of mitochondrial membrane potential on the basis of the fluorescent intensity of TMRM to check the state of survival of the stem cells; the results are shown in FIG. 7. […] In addition, the TMRM-stained cells were photographed, both for the case of 2-h treatment with mannitol and for the control (FIG. 8)). […] Changes in the mitochondrial membrane potential were observed using the experimental technique of Example 5, provided that the human embryonic stem cells were treated not with mannitol, but with 0.45 M of various other saccharides (sugar alcohols: sorbitol and xylitol; sugars: sucrose and glucose; betaines: trimethylglycine) (approximately equivalent to 750-780 mOsm/kg) for 2 hours.

## OC[C@@H](O)[C@@H](O)[C@H](O)[C@H](O)CO [mannitol]
2 hours
  Mitochondrial membrane potential (TMRM fluorescence, FACS): almost all of the cells treated with mannitol for 2 hours had lost membrane potential
2 hours, photographs of TMRM-stained cells
  Self-aggregation of cells immediately after treatment: remained dispersed
Then 5 days adherent culture
  Survival after adherent culture for 5 days: none of the cells exposed to mannitol were found live

From patent publication US8735152B2, “Methods for inducing cell death in pluripotent stem cells and differentiated cells other than cardiac myocytes” (Daiichi Sankyo Company, Limited, priority 2009, dated 2014)
